Where “and” joins values, the source holds several entries; their conditions need not be identical. Identical values can stand only once. Like-named read-outs stand apart in the source and are kept apart here.
How the values were obtained:
[1] = molecular target: T1, panel of 370 protein kinases (Homo sapiens, UniProt O00444); assay: Kinase inhibitor specificity profiling (Reaction Biology Corporation); assay type: biochemical; settings: 2 h, kinase PLK4/SAK; read-out: % Enzyme Activity (relative to DMSO controls)
T1 construct: purchased Reaction Biology Corporation (assay service)

[2] = molecular target: T2, panel of 370 protein kinases (Homo sapiens, UniProt O75914); assay: as above; assay type: biochemical; settings: 2 h, kinase PAK3; read-out: % Enzyme Activity (relative to DMSO controls)
T2 construct: purchased Reaction Biology Corporation (assay service)
T2 sequence (O75914 whole entry): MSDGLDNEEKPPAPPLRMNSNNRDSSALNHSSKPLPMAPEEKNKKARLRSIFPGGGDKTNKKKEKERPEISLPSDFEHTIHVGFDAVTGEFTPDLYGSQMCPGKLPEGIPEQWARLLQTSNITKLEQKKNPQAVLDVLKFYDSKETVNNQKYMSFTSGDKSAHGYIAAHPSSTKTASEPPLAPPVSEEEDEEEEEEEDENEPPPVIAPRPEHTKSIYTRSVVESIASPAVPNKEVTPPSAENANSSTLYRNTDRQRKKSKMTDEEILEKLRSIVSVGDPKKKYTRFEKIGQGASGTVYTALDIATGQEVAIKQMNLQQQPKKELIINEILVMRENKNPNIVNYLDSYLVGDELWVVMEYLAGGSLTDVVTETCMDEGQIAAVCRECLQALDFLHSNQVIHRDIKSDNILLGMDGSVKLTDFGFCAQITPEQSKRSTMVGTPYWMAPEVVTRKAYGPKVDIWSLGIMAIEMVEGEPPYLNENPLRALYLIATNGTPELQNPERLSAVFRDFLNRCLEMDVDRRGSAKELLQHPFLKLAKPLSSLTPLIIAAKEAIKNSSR

[3] = molecular target: T3, panel of 370 protein kinases (Homo sapiens, UniProt P35916); assay: as above; assay type: biochemical; settings: 2 h, kinase FLT4/VEGFR3; read-out: % Enzyme Activity (relative to DMSO controls)
T3 construct: purchased Reaction Biology Corporation (assay service)
T3 sequence (P35916 25-1363): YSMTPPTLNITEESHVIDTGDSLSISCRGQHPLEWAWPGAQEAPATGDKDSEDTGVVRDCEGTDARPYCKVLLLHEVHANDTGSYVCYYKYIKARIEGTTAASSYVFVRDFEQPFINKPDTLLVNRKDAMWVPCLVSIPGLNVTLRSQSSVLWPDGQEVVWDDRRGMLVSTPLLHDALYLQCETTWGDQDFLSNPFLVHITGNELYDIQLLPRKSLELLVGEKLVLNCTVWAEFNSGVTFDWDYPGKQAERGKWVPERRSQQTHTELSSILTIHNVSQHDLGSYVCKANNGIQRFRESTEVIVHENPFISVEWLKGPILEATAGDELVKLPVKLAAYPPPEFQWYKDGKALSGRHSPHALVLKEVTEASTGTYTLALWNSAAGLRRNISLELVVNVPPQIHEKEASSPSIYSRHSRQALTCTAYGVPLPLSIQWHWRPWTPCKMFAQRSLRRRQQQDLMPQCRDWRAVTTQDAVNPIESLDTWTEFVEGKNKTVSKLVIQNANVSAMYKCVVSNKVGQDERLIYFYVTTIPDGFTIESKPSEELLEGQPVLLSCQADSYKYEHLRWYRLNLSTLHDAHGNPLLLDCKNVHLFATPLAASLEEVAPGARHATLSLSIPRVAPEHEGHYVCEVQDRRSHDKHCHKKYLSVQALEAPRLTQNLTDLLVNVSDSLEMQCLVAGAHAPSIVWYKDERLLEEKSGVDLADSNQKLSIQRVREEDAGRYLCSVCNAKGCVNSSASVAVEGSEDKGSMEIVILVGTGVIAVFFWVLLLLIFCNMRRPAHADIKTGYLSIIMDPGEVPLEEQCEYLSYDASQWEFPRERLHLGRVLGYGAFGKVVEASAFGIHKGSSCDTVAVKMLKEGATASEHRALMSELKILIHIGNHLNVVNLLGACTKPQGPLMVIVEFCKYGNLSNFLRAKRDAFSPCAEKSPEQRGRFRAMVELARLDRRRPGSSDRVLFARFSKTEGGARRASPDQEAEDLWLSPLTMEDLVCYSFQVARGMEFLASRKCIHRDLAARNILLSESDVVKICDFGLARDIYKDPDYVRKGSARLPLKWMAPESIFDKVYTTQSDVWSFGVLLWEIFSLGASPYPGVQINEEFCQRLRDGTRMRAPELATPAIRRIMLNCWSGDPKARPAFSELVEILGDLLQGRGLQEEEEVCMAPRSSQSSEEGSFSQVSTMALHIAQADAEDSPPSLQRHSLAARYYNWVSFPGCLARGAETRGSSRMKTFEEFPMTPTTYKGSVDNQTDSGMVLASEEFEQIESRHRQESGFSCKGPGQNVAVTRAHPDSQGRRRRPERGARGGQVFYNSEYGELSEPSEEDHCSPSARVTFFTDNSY

[4] = molecular target: T4, panel of 370 protein kinases (Homo sapiens, UniProt Q15759); assay: as above; assay type: biochemical; settings: 2 h, kinase P38b/MAPK11; read-out: % Enzyme Activity (relative to DMSO controls)
T4 construct: purchased Reaction Biology Corporation (assay service)
T4 sequence (Q15759 whole entry): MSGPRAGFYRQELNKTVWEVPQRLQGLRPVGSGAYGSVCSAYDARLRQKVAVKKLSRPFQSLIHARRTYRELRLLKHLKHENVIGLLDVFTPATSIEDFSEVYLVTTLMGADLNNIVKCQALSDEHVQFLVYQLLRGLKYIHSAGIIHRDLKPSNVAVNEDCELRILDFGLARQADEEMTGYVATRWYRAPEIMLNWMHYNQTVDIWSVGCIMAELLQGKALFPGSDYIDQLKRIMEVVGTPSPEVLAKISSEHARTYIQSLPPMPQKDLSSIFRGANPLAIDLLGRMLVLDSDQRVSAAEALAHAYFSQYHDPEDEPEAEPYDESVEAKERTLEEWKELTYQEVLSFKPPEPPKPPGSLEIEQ

[5] = molecular target: T5, panel of 370 protein kinases (Homo sapiens, UniProt Q16512); assay: as above; assay type: biochemical; settings: 2 h, kinase PKN1/PRK1; read-out: % Enzyme Activity (relative to DMSO controls)
T5 construct: purchased Reaction Biology Corporation (assay service)
T5 sequence (Q16512 whole entry): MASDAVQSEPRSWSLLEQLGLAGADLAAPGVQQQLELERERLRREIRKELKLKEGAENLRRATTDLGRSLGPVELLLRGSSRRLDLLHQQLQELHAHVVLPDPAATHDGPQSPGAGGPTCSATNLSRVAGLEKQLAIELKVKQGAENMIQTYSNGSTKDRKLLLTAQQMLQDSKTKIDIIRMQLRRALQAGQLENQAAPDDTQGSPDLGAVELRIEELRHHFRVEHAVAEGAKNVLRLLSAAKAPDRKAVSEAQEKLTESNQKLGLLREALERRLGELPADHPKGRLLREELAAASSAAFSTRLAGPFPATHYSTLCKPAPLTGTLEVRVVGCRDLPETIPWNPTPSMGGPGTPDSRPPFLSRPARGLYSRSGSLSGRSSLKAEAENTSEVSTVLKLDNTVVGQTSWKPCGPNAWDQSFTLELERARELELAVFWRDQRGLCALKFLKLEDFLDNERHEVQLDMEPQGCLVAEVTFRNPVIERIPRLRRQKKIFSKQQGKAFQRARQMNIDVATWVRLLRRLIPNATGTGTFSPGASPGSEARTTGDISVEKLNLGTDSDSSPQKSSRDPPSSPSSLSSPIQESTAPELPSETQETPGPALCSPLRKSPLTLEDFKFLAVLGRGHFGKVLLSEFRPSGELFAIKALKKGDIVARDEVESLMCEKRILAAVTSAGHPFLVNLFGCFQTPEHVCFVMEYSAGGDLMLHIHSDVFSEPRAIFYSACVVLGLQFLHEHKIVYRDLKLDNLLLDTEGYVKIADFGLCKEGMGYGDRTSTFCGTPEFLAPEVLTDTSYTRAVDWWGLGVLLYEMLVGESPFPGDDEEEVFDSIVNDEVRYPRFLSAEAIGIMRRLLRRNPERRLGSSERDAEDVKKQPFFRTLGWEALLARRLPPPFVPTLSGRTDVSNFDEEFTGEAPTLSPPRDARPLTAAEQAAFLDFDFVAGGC

[6] = molecular target: T6, panel of 370 protein kinases (Homo sapiens, UniProt Q8N568); assay: as above; assay type: biochemical; settings: 2 h, kinase DCAMKL2; read-out: % Enzyme Activity (relative to DMSO controls)
T6 construct: purchased Reaction Biology Corporation (assay service)
T6 sequence (Q8N568 whole entry): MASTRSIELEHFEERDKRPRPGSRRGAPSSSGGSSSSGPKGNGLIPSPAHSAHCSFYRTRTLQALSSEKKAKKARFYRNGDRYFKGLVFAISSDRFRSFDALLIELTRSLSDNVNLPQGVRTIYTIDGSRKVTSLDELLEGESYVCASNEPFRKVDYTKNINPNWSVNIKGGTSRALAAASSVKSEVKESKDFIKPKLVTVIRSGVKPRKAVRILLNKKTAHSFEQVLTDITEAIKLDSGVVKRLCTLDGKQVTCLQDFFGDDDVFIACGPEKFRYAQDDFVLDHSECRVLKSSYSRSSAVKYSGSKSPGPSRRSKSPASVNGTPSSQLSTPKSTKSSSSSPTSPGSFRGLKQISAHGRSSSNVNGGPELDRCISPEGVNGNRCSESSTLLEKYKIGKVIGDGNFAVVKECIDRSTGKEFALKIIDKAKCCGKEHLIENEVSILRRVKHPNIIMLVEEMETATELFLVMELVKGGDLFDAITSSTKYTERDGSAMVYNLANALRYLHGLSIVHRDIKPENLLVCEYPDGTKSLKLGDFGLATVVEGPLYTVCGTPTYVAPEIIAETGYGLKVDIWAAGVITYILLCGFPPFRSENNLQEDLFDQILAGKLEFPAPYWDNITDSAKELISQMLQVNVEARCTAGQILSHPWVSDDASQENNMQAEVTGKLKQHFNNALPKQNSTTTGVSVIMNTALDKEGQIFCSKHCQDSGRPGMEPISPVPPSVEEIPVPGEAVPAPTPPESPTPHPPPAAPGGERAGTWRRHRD

[7] = molecular target: T7, panel of 370 protein kinases (Homo sapiens, UniProt Q9H2K8); assay: as above; assay type: biochemical; settings: 2 h, kinase TAOK3/JIK; read-out: % Enzyme Activity (relative to DMSO controls)
T7 construct: purchased Reaction Biology Corporation (assay service)
T7 sequence (Q9H2K8 whole entry): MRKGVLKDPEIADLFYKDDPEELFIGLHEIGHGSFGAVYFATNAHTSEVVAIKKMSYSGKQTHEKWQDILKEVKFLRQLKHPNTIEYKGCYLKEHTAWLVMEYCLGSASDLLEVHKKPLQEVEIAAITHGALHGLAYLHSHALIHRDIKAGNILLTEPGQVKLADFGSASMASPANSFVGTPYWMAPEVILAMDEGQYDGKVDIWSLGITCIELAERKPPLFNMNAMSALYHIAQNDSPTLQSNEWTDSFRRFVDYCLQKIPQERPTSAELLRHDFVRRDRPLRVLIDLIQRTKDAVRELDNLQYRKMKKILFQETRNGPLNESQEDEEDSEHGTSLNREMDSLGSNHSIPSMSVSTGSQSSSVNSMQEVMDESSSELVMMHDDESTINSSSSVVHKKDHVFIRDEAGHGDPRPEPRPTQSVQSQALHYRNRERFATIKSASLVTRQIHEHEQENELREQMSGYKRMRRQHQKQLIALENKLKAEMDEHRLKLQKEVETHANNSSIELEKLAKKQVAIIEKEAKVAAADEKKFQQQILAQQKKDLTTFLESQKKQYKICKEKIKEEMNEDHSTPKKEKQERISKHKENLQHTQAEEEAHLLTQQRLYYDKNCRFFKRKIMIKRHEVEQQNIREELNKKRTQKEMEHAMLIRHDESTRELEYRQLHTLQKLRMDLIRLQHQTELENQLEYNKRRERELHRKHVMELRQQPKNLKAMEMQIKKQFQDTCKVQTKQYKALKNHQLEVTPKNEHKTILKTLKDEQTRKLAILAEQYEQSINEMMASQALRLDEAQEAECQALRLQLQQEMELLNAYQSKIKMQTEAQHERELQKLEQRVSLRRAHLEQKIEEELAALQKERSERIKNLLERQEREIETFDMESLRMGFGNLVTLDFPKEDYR

DYRK2 protein = molecular target: T8, DYRK2 protein (Homo sapiens, UniProt Q92630); assay: Microscale thermophoresis binding assay; settings: for Fnorm: triplicates
T8 construct: 6xHis (N, cleaved yes); TEV protease cleavage site (N, cleaved yes); made in house; host or cells: E. coli BL21 (DE3)
T8 sequence (Q92630 72-479 isoform Q92630-2): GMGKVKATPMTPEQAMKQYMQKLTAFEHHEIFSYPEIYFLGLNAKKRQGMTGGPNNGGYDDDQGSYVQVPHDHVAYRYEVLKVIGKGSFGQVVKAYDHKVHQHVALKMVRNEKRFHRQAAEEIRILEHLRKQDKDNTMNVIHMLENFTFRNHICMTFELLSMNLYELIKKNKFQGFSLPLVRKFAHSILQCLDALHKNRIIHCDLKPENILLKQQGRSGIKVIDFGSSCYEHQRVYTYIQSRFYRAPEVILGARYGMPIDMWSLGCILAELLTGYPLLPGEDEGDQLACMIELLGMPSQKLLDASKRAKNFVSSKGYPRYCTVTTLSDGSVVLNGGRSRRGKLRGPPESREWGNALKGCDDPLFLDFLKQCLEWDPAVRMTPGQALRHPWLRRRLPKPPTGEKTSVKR

Pharmacokinetic profiles = assay type: in vivo; settings: SD rats

Work on CCN1CCN(C(=O)c2ccc(Nc3ncc(F)c(-c4ccc5nc(N(C)C)sc5c4)n3)nc2)CC1 [YK-2-69] yielded a remaining activity at 1 µM [1] of 72.6%, a remaining activity at 1 µM [2] of 160% and a remaining activity at 1 µM [3] of 75.2%. For the same molecule, the remaining activity at 1 µM [4] was 94.9%, the remaining activity at 1 µM [5] was 75.7% and the remaining activity at 1 µM [6] was 108%. The remaining activity at 1 µM [7] was 104%, the Kd (DYRK2 protein) was 92 nM and the Fnorm (DYRK2 protein; Ligand Concentration 1.52588e-9 M) was 967.581 ‰ and 966.546 ‰ and 966.864 ‰. The Fnorm (DYRK2 protein; Ligand Concentration 3.05176e-9 M) was 966.58 ‰ and 965.007 ‰ and 967.223 ‰, the Fnorm (DYRK2 protein; Ligand Concentration 6.10352e-9 M) was 966.992 ‰ and 966.91 ‰ and 966.101 ‰ and the Fnorm (DYRK2 protein; Ligand Concentration 1.2207e-8 M) was 967.371 ‰ and 966.328 ‰ and 967.725 ‰. The Fnorm (DYRK2 protein; Ligand Concentration 2.44141e-8 M) was 967.449 ‰ and 966.053 ‰ and 966.951 ‰, the Fnorm (DYRK2 protein; Ligand Concentration 4.88281e-8 M) was 966.087 ‰ and 966.251 ‰ and 967.971 ‰ and the Fnorm (DYRK2 protein; Ligand Concentration 9.76563e-8 M) was 964.723 ‰ and 963.783 ‰ and 964.77 ‰. For the same molecule, the Fnorm (DYRK2 protein; Ligand Concentration 1.95313e-7 M) was 965.362 ‰ and 964.006 ‰ and 962.948 ‰, the Fnorm (DYRK2 protein; Ligand Concentration 3.90625e-7 M) was 961.623 ‰ and 962.98 ‰ and 964.971 ‰ and the Fnorm (DYRK2 protein; Ligand Concentration 7.8125e-7 M) was 963.524 ‰ and 964.437 ‰ and 962.941 ‰. The Fnorm (DYRK2 protein; Ligand Concentration 1.5625e-6 M) was 963.3 ‰ and 963.031 ‰ and 962.056 ‰, the Fnorm (DYRK2 protein; Ligand Concentration 3.125e-6 M) was 962.439 ‰ and 962.002 ‰ and 962.785 ‰ and the Fnorm (DYRK2 protein; Ligand Concentration 6.25e-6 M) was 962.791 ‰ and 963.606 ‰ and 963.319 ‰. The Fnorm (DYRK2 protein; Ligand Concentration 1.25e-5 M) was 961.109 ‰ and 965.797 ‰ and 962.38 ‰, the Fnorm (DYRK2 protein; Ligand Concentration 2.5e-5 M) was 962.063 ‰ and 963.029 ‰ and 959.958 ‰ and the Fnorm (DYRK2 protein; Ligand Concentration 5e-5 M) was 962.013 ‰ and 961.244 ‰ and 962.047 ‰. The “Con. (individual rats NO.1-3)” value (Pharmacokinetic profiles; IV 1 mg/kg, 0.033 h, 1 mg/kg) was 1120 ng/mL and 712 ng/mL, the “Con. (individual rats NO.1-3)” value (Pharmacokinetic profiles; IV 1 mg/kg, 0.083 h, 1 mg/kg) was 959 ng/mL and 574 ng/mL and the “Con. (individual rats NO.1-3)” value (Pharmacokinetic profiles; IV 1 mg/kg, 0.25 h, 1 mg/kg) was 611 ng/mL and 402 ng/mL. For the same molecule, the “Con. (individual rats NO.1-3)” value (Pharmacokinetic profiles; IV 1 mg/kg, 0.5 h, 1 mg/kg) was 480 ng/mL and 383 ng/mL, the “Con. (individual rats NO.1-3)” value (Pharmacokinetic profiles; IV 1 mg/kg, 1 h, 1 mg/kg) was 355 ng/mL and 310 ng/mL and the “Con. (individual rats NO.1-3)” value (Pharmacokinetic profiles; IV 1 mg/kg, 2 h, 1 mg/kg) was 199 ng/mL and 175 ng/mL. For the same molecule, the “Con. (individual rats NO.1-3)” value (Pharmacokinetic profiles; IV 1 mg/kg, 4 h, 1 mg/kg) was 96.9 ng/mL and 91.7 ng/mL, the “Con. (individual rats NO.1-3)” value (Pharmacokinetic profiles; IV 1 mg/kg, 6 h, 1 mg/kg) was 63.9 ng/mL and 64.4 ng/mL and the “Con. (individual rats NO.1-3)” value (Pharmacokinetic profiles; IV 1 mg/kg, 8 h, 1 mg/kg) was 45.3 ng/mL and 36.2 ng/mL. The “Con. (individual rats NO.1-3)” value (Pharmacokinetic profiles; IV 1 mg/kg, 12 h, 1 mg/kg) was 14.4 ng/mL, the “Con. (individual rats NO.1-3)” value (Pharmacokinetic profiles; PO 10 mg/kg, 0.083 h, 10 mg/kg) was 9.74 ng/mL and 9.99 ng/mL and the “Con. (individual rats NO.1-3)” value (Pharmacokinetic profiles; PO 10 mg/kg, 0.25 h, 10 mg/kg) was 82.5 ng/mL and 106 ng/mL. The “Con. (individual rats NO.1-3)” value (Pharmacokinetic profiles; PO 10 mg/kg, 0.5 h, 10 mg/kg) was 228 ng/mL and 221 ng/mL, the “Con. (individual rats NO.1-3)” value (Pharmacokinetic profiles; PO 10 mg/kg, 1 h, 10 mg/kg) was 437 ng/mL and 376 ng/mL and the “Con. (individual rats NO.1-3)” value (Pharmacokinetic profiles; PO 10 mg/kg, 2 h, 10 mg/kg) was 729 ng/mL and 559 ng/mL. The “Con. (individual rats NO.1-3)” value (Pharmacokinetic profiles; PO 10 mg/kg, 4 h, 10 mg/kg) was 695 ng/mL and 609 ng/mL, the “Con. (individual rats NO.1-3)” value (Pharmacokinetic profiles; PO 10 mg/kg, 6 h, 10 mg/kg) was 538 ng/mL and 544 ng/mL and the “Con. (individual rats NO.1-3)” value (Pharmacokinetic profiles; PO 10 mg/kg, 8 h, 10 mg/kg) was 435 ng/mL and 507 ng/mL. For the same molecule, the “Con. (individual rats NO.1-3)” value (Pharmacokinetic profiles; PO 10 mg/kg, 12 h, 10 mg/kg) was 220 ng/mL and 279 ng/mL, the “Con. (individual rats NO.1-3)” value (Pharmacokinetic profiles; PO 10 mg/kg, 24 h, 10 mg/kg) was 38.4 ng/mL and 66 ng/mL and the concentration at 0.033 h (Pharmacokinetic profiles; SD, rat, serum, iv, 1 mg/kg, IV 1 mg/kg, 0.033 h, read-out: Con. (individual rats NO.1-3)) was 1090 ng/mL. The concentration at 2 h (Pharmacokinetic profiles; SD, rat, serum, iv, 1 mg/kg, IV 1 mg/kg, 2 h, read-out: Con. (individual rats NO.1-3)) was 209 ng/mL, the concentration at 2 h (Pharmacokinetic profiles; SD, rat, serum, iv, 1 mg/kg, IV 1 mg/kg, 2 h, read-out: Con. Mean) was 194 ng/mL and the concentration at 4 h (Pharmacokinetic profiles; SD, rat, serum, iv, 1 mg/kg, IV 1 mg/kg, 4 h, read-out: Con. (individual rats NO.1-3)) was 97 ng/mL.

— article PMC9133015 (Nature Communications, 2022)
